Read-outs that look alike come from different tables or passages of the source.
What was measured:
[1] = target: PDE4B (aa 152-484, Uniprot ID Q07343) (Homo sapiens (Human), UniProt Q07343); test: PDE4 SPA assay (scintillation proximity assay); assay type: biochemical; conditions: read-out: PDE4B2 IC50
Description: Phosphodiesterase (PDE) activity is determined by measuring the effect of a test agent on the activity of the PDE4B enzyme in a scintillation proximity assay (SPA). At the time of assay, approximately 30 μL of PDE4B (aa 152-484, Uniprot ID Q07343) in 50 mM Tris pH 7.5, 1.3 mM MgC2, 0.004% Brij 35 is added to a 384 well white clear bottom polystyrene plate (Corning) containing 1 μL of varying concentrations of test compound. After −10 minutes at room temperature (RT; 21° C.), the assay is initiated by the addition of 20 μL of a mixture of ^3H-labeled (adenosine 3′, 5′-cyclic phosphate, ammonium salt, [2,8-^3H]; Perkin Elmer) and unlabeled cAMP. The final assay conditions are approximately 81.6 pM PDE4B in 50 mM Tris pH 7.5, 1.3 mM MgCl2, 0.004% Brij 35, 1 μM ^3H-labeled/unlabeled cAMP (1425 dpm/pmol) and the indicated final concentration of test compound (approximately 10 μM to […] by 4-fold dilution). The final concentration of DMSO in the assay is approximately 2.0%. After 30 minutes at RT, the assay is terminated by the addition of approximately 20 μL of an aqueous solution of PDE YSI SPA beads (8 mg/mL in water; Perkin Elmer). The beads are allowed to settle for at least 2 hours and the plate is then counted on a MicroBeta2 (Perkin Elmer). The concentrations and resulting effect values for the tested compound are plotted and the concentration of compound required for 50% effect (IC50) is determined with a four-parameter logistic dose response equation (E-WorkBook, ID Business Solutions Ltd.) and shown in Table 17.

IL-4 = test: Cytokine assay: IL-4 release from PHA-L stimulated human PBMCs; assay type: cell-based; conditions: read-out: IL4 IC50
Procedure, shortened: (§1)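 PBMC thaw, ~250k cells/well; cpd pre-incubation ~10 min RT; PHA-L 3.5 μg/mL final; 48 h, 37° C, 5% CO2; supernatant HTRF; IC50 by 4-parameter logistic.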

IL-13 = test: Cytokine assay: IL-13 release from PHA-L stimulated human PBMCs; assay type: cell-based; conditions: read-out: IL13 IC50
Procedure, shortened: as §1

IFNγ = test: Cytokine assay: IFNγ release from PHA-L stimulated human PBMCs; assay type: cell-based
Procedure, shortened: as §1

Sequence of PDE4B (aa 152-484, Uniprot ID Q07343) (Q07343 324-656): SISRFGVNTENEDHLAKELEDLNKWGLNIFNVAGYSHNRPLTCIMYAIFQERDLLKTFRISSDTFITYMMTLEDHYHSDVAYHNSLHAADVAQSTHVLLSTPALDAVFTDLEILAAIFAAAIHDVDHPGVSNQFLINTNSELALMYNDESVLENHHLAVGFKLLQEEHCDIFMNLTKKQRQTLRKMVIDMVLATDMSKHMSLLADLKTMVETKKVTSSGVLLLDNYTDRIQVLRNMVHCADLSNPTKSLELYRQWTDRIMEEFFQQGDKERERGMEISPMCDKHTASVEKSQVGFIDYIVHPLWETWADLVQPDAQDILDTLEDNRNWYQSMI

Q: How did the IC50 [1] turn out when `CCOc1cc(-c2cncc(C3COB(O)C3)c2C)ccc1OC` (single isomer, unassigned; enantiomer 2) [Example 189, 4-(5-(3-ethoxy-4-methoxyphenyl)-4-methylpyridin-3-yl)-1,2-oxaborolan-2-ol, enantiomer 2] was run?
A: 2.61 nM

Q: And the IC50 (IL-4)?
A: 7.72 nM

Q: And the IC50 (IL-13)?
A: 1460 nM

Q: What about the IC50 (IFNγ; Homo sapiens, PBMC) of the same molecule?
A: 1.46 nM

Q: What does the source list for `CCCOc1c(OC)ccc(-c2cncc(C3COB(O)C3)c2)c1F` (stereo not shown) [Example 81, 4-(5-(2-fluoro-4-methoxy-3-propoxphenyl)pyridin-3-yl)-1,2-oxaborolan-2-ol]?
A: IC50 [1]: 2.36 nM; IC50 (IL-4): 54.4 nM; IC50 (IL-13): 858 nM; IC50 (IFNγ; Homo sapiens, PBMC): 1.62 nM

Q: `COc1cc(-c2cccc(C3COB(O)C3)c2)cnc1OC` (stereo not shown) [Example 161, 4-(3-(5,6-dimethoxypyridin-3-yl)phenyl)-1,2-oxaborolan-2-ol] was tested. Which IC50 [1] did it give?
A: 11.3 nM

Q: And the IC50 (IL-4; Homo sapiens, PBMC)?
A: 419 nM

Q: What about the IC50 (IL-13; Homo sapiens, PBMC) of the same molecule?
A: 960 nM

Q: What about the IC50 (IFNγ; Homo sapiens, PBMC) of the same molecule?
A: 38.6 nM

Q: With `COc1ccc(-c2cncc(C3COB(O)C3)c2)cc1OCCO` (single isomer, unassigned) [Example 8, 4-(5-(3-(2-hydroxyethoxy)-4-methoxyphenyl)pyridin-3-yl)-1,2-oxaborolan-2-ol] as the molecule, how does the IC50 [1] read?
A: 2.42 nM

Q: And the IC50 (IL-4)?
A: 0.76 nM

Q: What about the IC50 (IL-13) of the same molecule?
A: 25 nM

Q: What about the IC50 (IFNγ) of the same molecule?
A: 1.2 nM

Q: For `CCCOc1cc(-c2nc(C)cc(C3COB(O)C3)n2)ccc1OC` (stereo not shown) [Example 54, 4-(2-(4-methoxy-3-propoxyphenyl)-6-methylpyrimidin-4-yl)-1,2-oxaborolan-2-ol], which IC50 [1] is on record?
A: 7.77 nM

Q: What about the IC50 (IL-4; Homo sapiens, PBMC) of the same molecule?
A: 5.58 nM

Q: And the IC50 (IL-13; Homo sapiens, PBMC)?
A: 1490 nM

Q: And the IC50 (IFNγ; Homo sapiens, PBMC)?
A: 4.2 nM

Q: How did the IC50 [1] turn out when `COc1ccc(-c2cccc(C3COB(O)C3)c2)cc1OCCF` (stereo not shown) [Example 63, 4-(3′-(2-fluoroethoxy)-4′-methoxy-[1,1′-biphenyl]-3-yl)-1,2-oxaborolan-2-ol] was run?
A: 1.62 nM

Q: What about the IC50 (IL-4; Homo sapiens, PBMC) of the same molecule?
A: 57.9 nM

Q: What about the IC50 (IL-13; Homo sapiens, PBMC) of the same molecule?
A: 312 nM

Q: And the IC50 (IFNγ; Homo sapiens, PBMC)?
A: 2.75 nM

Q: What does the source list for `CCOc1cc(-c2cccc(C3COB(O)C3)c2)ccc1OC` (stereo not shown) [Example 77, 4-(3′-ethoxy-4′-methoxy-[1,1′-biphenyl]-3-yl)-1,2-oxaborolan-2-ol]?
A: IC50 [1]: 2.4 nM; IC50 (IL-4; Homo sapiens, PBMC): 40.8 nM; IC50 (IL-13; Homo sapiens, PBMC): 415 nM; IC50 (IFNγ; Homo sapiens, PBMC): 2.61 nM

Q: What does the source list for `CCOc1cc(-c2cncc(C3COB(O)C3)c2C(F)F)ccc1OC` (single isomer, unassigned) [Example 140, 4-(4-(difluoromethyl)-5-(3-ethoxy-4-methoxyphenyl)pyridin-3-yl)-1,2-oxaborolan-2-ol]?
A: IC50 [1]: 2.7 nM; IC50 (IL-4): 3.47 nM; IC50 (IL-13): 3450 nM; IC50 (IFNγ): 3.2 nM

Q: For `COc1ccc(-c2cccc(C3COB(O)C3)n2)cc1OC1CCCC1` (single isomer, unassigned) [Example 66, 4-(6-(3-(cyclopentyloxy)-4-methoxyphenyl)pyridin-2-yl)-1,2-oxaborolan-2-ol], which IC50 [1] is on record?
A: 2.15 nM

Q: And the IC50 (IL-4; Homo sapiens, PBMC)?
A: 86.5 nM

Q: What about the IC50 (IL-13) of the same molecule?
A: 327 nM

Q: And the IC50 (IFNγ)?
A: 0.71 nM

Q: For `CCCOc1cc(-c2cncc(C3COB(O)C3)c2)ncc1OC` (stereo not shown) [Example 178], which IC50 [1] is on record?
A: 2.02 nM

Q: And the IC50 (IL-4; Homo sapiens, PBMC)?
A: 1.81 nM

Q: What about the IC50 (IL-13; Homo sapiens, PBMC) of the same molecule?
A: 1280 nM

Q: And the IC50 (IFNγ; Homo sapiens, PBMC)?
A: 0.91 nM

Q: Which results are given for `COc1ccc(-c2cccc(C3COB(O)C3)c2)cc1OC1CCCC1` (stereo not shown) [Example 130, 4-(3′-(cyclopentyloxy)-4′-methoxy-[1,1′-biphenyl]-3-yl)-1,2-oxaborolan-2-ol]?
A: IC50 [1]: 1.6 nM; IC50 (IL-4; Homo sapiens, PBMC): 120 nM; IC50 (IL-13; Homo sapiens, PBMC): 587 nM; IC50 (IFNγ; Homo sapiens, PBMC): 3.21 nM

Q: `CCCOc1cc(-c2cncc(C3COB(O)C3)c2)ccc1OC(F)F` (single isomer, unassigned) [Example 17, 4-(5-(4-(difluoromethoxy)-3-propoxyphenyl)pyridin-3-yl)-1,2-oxaborolan-2-ol] was tested. Which IC50 [1] did it give?
A: 0.28 nM

Q: And the IC50 (IL-4; Homo sapiens, PBMC)?
A: 0.65 nM

Q: And the IC50 (IL-13; Homo sapiens, PBMC)?
A: 138 nM

Q: What about the IC50 (IFNγ; Homo sapiens, PBMC) of the same molecule?
A: 0.47 nM

Q: For `COc1ccc(-c2cncc(C3COB(O)C3)c2)c(C#N)c1OC` (stereo not shown) [Example 153, 6-(5-(2-hydroxy-1,2-oxaborolan-4-yl)pyridin-3-yl)-2,3-dimethoxybenzonitrile], which IC50 [1] is on record?
A: 3.24 nM

Q: And the IC50 (IL-4; Homo sapiens, PBMC)?
A: 50.7 nM

Q: And the IC50 (IL-13; Homo sapiens, PBMC)?
A: 860 nM

Q: And the IC50 (IFNγ; Homo sapiens, PBMC)?
A: 2.57 nM

Reference: US11559538B2, “Substituted 1,2-oxaborolan-2-ols as PDE4 inhibitors” (Pfizer Inc., priority 2018, dated 2023)
